Values of other authors as cited in patent publication US7931880B2, “Production of silver sulfate grains using inorganic additives” (Eastman Kodak Company, priority 2007, dated 2011).

Assays:
[1] = tested on: Escherichia coli; details: in polymethylmethacrylate bone cement at 0.5% concentration
[2] = tested on: Pseudomonas aeruginosa; details: in polymethylmethacrylate bone cement at 0.5% concentration
[3] = tested on: Staphylococcus aureus; details: in polymethylmethacrylate bone cement at 0.5% concentration

[Na+].[Na+].[O]=[W](=[O])([O-])[O-] [Na2WO4, sodium tungstate]
Additive Silver Solubility (silver salt of the additive anion): 0.0070 g/100 mL
Additive Sulfate Solubility (sulfate salt of the additive cation): 7.7 g/100 mL

[Cl][Ag] [Silver chloride]
inhibition of bacterial growth [1]: significantly inhibit
inhibition of bacterial growth [2]: significantly inhibit
inhibition of bacterial growth [3]: significantly inhibit

O=S(=O)([O-])[O-].[Ag+].[Ag+] [silver sulfate]
inhibition of bacterial growth [1]: significantly inhibit
inhibition of bacterial growth [2]: significantly inhibit
inhibition of bacterial growth [3]: significantly inhibit

silver oxide
inhibition of bacterial growth [1]: significantly inhibit
inhibition of bacterial growth [2]: significantly inhibit
inhibition of bacterial growth [3]: significantly inhibit
